The source of these data is patent US6583132B1, “Oxidant scavengers” (Duke University, priority 1993, dated 2003).

For experiment [1], the system named is Rat pulmonary epithelial cell cultures (L2). Kind of experiment: Paraquat-induced injury of L2 cells, LDH release. In kind it is cell-based. Particulars: 100 μM; Paraquat 2.5 mM, 48 hours.
The test system of a further experiment is aconitase. Kind of experiment: Aconitase activity in cortical cell lysates. In kind it is cell-based, rat. The note with it: 200 μM MnTBAP. How it is done:
(§1) Tissue culture: Mixed neuronal and glial cultures were prepared from embryonic day-18 rat cerebral cortices (Sprague-Dawley, Zivic Miller). Briefly, the cerebral cortices were dissected and enzymatically dissociated by incubation in Ca^++-, Mg^++-free Hank's balanced salt solution (HBSS) supplemented with 10 mM HEPES and 0.25% trypsin for 20 min. at 37° C. The tissue was rinsed and dispersed into single cell suspension by gentle passage through a fire polished Pasteur pipette. The cell suspension was centrifuged and resuspended in Minimum Essential Media (MEM), containing Earle's salts supplemented with 3 g/L glucose, 5% horse serum and 5% fetal bovine serum (growth media). The cells were plated in poly-D-lysine-coated multi-well plates: 12-well plates for aconitase measurement, and 24 well plates for toxicity experiments. Cells were maintained at 37° C. in a humidified incubator with 5% CO2/95% air in growth media. Media was not replaced so as to reduce glial overgrowth and neuronal loss. Mature cells (14-17 days in vitro) were used for all experiments.
(§2) Cell treatment: The growth media was replaced with MEM supplemented with 25 mM glucose (MEM-g). For both neurotoxicity studies and aconitase measurement, cells were incubated in the designated treatment for the indicated length of time at 37° C. Unless otherwise specified, antagonists or SOD-mimetics were added 15 min. prior to agonists. For measurement of neurotoxicity, cells were incubated with treatments for 18 hr at 37° C. in MEM-g. To access the ability of antagonists to inhibit acute NMDA toxicity or rescue cells from an ongoing NMDA insult, an alternate paradigm of NMDA treatment was used in addition to the one describe above. In this paradigm, growth media was replaced with HBSS^+ (Ca^++-, Mg^++-free Hank's Balanced Salt Solution supplemented with 2 mM CaCl2, 1 mM NaHCO3, 10 mM HEPES and 5 μM glycine), cells were treated with vehicle or 100 μM NMDA for 15 min. after which HBSS^+ was replaced with MEM-g and cells were returned to the incubator for 18 additional hrs. Antagonsists or SOD-mimetics were added to the cells 15 min. before NMDA exposure or 15, 30 or 60 min. following final media replacement. For determination of Ca^++-dependence, cells were incubated in HBSS^+ with no added Ca^++. When kainate (KA) was used as an agonist, 100 μM D-APV was routinely included to block secondary NMDA receptor activation. Catalase (100 U/ml) was always included when xanthine plus xanthine oxidase (X+XO) was used as a treatment to rule out the contribution of hydrogen peroxide.
Aconitase measurement: For the measurement of aconitase, following treatment with agents, media was removed and cells lysed in ice-cold 50 mM, Tris/HCl, pH 7.4 containing 0.6 mM MnCl2, 1 mM L-cysteine, 1 mM citrate and 0.5% Triton-X 100. The aconitase activity of cell lysates was measured spectrophotometrically by monitoring the formation of cis-aconitate from isocitrate at 240 nm in 50 mM Tris/HCl, pH 7.4, containing 0.6 mM MnCl2 and 20 mM isocitrate at 25° C. (Kreb and Holzach, Biochem. J. 52:527 (1952); Gardner and Fridovich, J. Biol. Chem. 267:8757 (1992)). […] Aconitase activity in cortical cell lysates was inhibited by 0.1 mM potassium ferricyanide or by boiling of sample.

In the next experiment the test system is rat cortical cells. Put plainly: Neurotoxicity (LDH release) in cortical cell culture. In kind it is cell-based. Here is the method:
as §1, §2
(§3) Neurotoxicity studies: Neurotoxicity was determined by the measurement of LDH released in the supernatant media as previously described (Patel et al, Toxicol. Appl. Pharmacol. 115:124 (1991) and Neurotoxicology 14:35 (1992)). LDH was measured by the method of Vassault, Lactate dehydrogenase. In: Methods of Enzymatic Analysis, Bergmeyer HU (ed), Verlag Chemie, Weinheim, pp. 118-126 (1983). Additionally, cell death was confirmed with ethidium-1 homodimer (EthD-1). Briefly, the cells were washed with HBSS, loaded with 20 μM EthD-1 for 30 min,. rinsed and viewed through fluorescence optics. The number of dead cells labeled with EthD-1 were counted in 4-6 randomly selected fields, the numbers averaged to give an estimate of cell death and the experiment was repeated 3 times.

Experiment [2] deals with calf pulmonary artery endothelial cell cultures (CPA-47). Put plainly: Paraquat-induced injury of CPA-47 cells, LDH release. Particulars: varying concentrations; Paraquat 2 mM, 24 hours. In kind it is cell-based. Here is the method: Calf pulmonary artery endothelial cell cultures (CPA-47) were grown to confluence in Ham's F-12K medium with 10% fetal bovine serum at pH 7.4 and 37° C. Cells were then trypsinized and seeded at equal densities in 24 well plates and grown to 90% confluence. Cells were washed and pre-incubated for 1 hour with varying concentrations of ZnTBAP in MEM or MEM only. Paraquat (2 mM) was added and allowed to incubate for 24 hours. Cell injury was quantitated by measuring the release of cellular lactate dehydrogenase (LDH) into the medium.

The next experiment relates to Cortical cells. Put plainly: Cell death of cortical cells by EthD-1 staining. Particulars: concentration-response curves. Format: cell-based, rat. How it is done:
Tissue culture: Mixed neuronal and glial cultures were prepared from embryonic day-18 rat cerebral cortices (Sprague-Dawley, Zivic Miller). Briefly, the cerebral cortices were dissected and enzymatically dissociated by incubation in Ca^++-, Mg^++-free Hank's balanced salt solution (HBSS) supplemented with 10 mM HEPES and 0.25% trypsin for 20 min. at 37° C. The tissue was rinsed and dispersed into single cell suspension by gentle passage through a fire polished Pasteur pipette. The cell suspension was centrifuged and resuspended in Minimum Essential Media (MEM), containing Earle's salts supplemented with 3 g/L glucose, 5% horse serum and 5% fetal bovine serum (growth media). […]
as §3, with “In: Methods of Enzymatic Analysis, Bergmeyer HU (ed), Verlag Chemie, Weinheim, pp. 118-126 (1983). Additionally, cell death was confirmed with ethidium-1 homodimer (EthD-1).” left out

For experiment [3], the system named is calf pulmonary artery endothelial cell cultures (CPA-47). Kind of experiment: Xanthine oxidase/xanthine-induced injury, LDH release. Format: cell-based. Particulars: 50 μM, 1 hour pre-incubation; XO plus 200 μM xanthine, 24 hours. How it is done:
In a second study, calf pulmonary artery endothelial cell cultures (CPA-47 (Tissue and Cell 10:535 (1978)) were grown to confluence in Ham's F-12K medium with 10% fetal bovine serum at pH 7.4 and 37° C. Cells were then trypsinized and seeded at equal densities in 24 well plates and grown to 90% confluence. Cells were washed and pre-incubated for 1 hour with 50 μM of MnTBAO in minimum essential medium (MEM) or MEM only. Various amounts of xanthine oxidase (XO) plus 200 μM xanthine (X) were added and allowed to incubate for 24 hours. Cell injury was quantitated by measuring the release of cellular lactate dehydrogenase (LDH) into the medium.

Experiment [4] is described as follows: Paraquat-induced lung injury, BALF analysis. In kind it is in vivo, Mice. Particulars: 2.5 mg/ml nebulized 30 minutes twice daily for 2 days; paraquat 45 mg/kg ip; 48 hours. Here is the method: Mice were treated with either paraquat (PQ, 45 mg/kg, ip) or saline (10 ml/kg, ip) and exposed to MnTBAP (2.5 mg/ml, nebulized into a 2 L chamber at 2 L/min for 30 minutes twice daily for 2 days) or room air. Mice were killed 48 hours after start of treatment and lung injury was assessed by analysis of bronchoalveolar lavage fluid (BALF). BALF damage markers used were lactate dehydrogenase (LDH, as units/L), proteins concentration (as mg/dl), and percent of polymorphonuclear leukocytes (PMN).

Turning to “Mn(III) tetrakis (4-benzoic acid)porphyrin [MnTBAP]”, the “paraquat-induced LDH release” value in experiment [1] is reported as “decrease paraquat-induced LDH release”. The “PQ^++-, NMDA- and KA-mediated decreases of aconitase activity” value with aconitase was “markedly inhibited”. In the experiment on rat cortical cells (200 μM MnTBAP, 18 hr), the “PQ^++-, NMDA- and KA-mediated cell death (LDH release)” value is given as “markedly inhibited”. For the same substance, in the experiment with rat cortical cells (200 μM MnTBAP, 18 hr), the “shift of concentration-response curve for NMDA (LDH)” value is “complete protection at low concentrations of NMDA”. In addition, the “reduction of LDH release” value in the experiment with rat cortical cells (200 μM added 30 min. after 15 min. 100 μM NMDA) amounted to 30%; in the experiment with rat cortical cells (200 μM added 60 min. after 15 min. 100 μM NMDA), 25%; with rat cortical cells (condition "pre": 15 min. prior to and during 15 min. 100 μM NMDA, measured 18 hr. later), 25%; with rat cortical cells (condition "pre+post", 100 μM NMDA 15 min.) it was 51%. Also, in the experiment on rat cortical cells (added 15 min. after 15 min. 100 μM NMDA, 200 μM MnTBAP, 10 μM MK801), the “reduction of LDH release / protective effect” value is recorded as 38%. The “paraquat-induced LDH release / injury” value in experiment [2] is given as “decreases paraquat-induced LDH release in a dose-dependent manner”. Also, the “neuroprotective effects against PQ^++, NMDA and KA toxicities” value in the experiment on Cortical cells is “markedly increased neuroprotective effects in comparison to ZnTBAP”. The “XO/X-induced LDH release” value in experiment [3] is recorded as “decrease in XO/X-induced LDH release”. Besides, the “protection against paraquat-induced lung injury” value in experiment [4] was “partial protection”.
